The values that follow come from patent US11014871B2, ““Multi-target” compounds with inhibitory activity towards histone deacetylases and tubulin polymerisation, for use in the treatment of cancer” (UNIVERSITE PARIS-SUD, priority 2016, dated 2021).

For one series, the system named is many human cancer lines. Particulars: many human cancer lines and resistant lines; read-out: cytotoxic IC50; cited from earlier work.
The test system of another series is HCT116. Kind of series: Cytotoxic activity on HCT116. Type of series: cell-based. The note with it: for IC50: Homo sapiens, read-out: HCT116 IC50; for antiproliferative / cytotoxic activity in words: comment on Table 1. The method, then:
(§1) The cytotoxic activity of the prepared compounds was evaluated on various human cancer cell lines. The selected line was incubated at 37° C. in the presence of one of the novel compounds, added to the culture medium at various concentrations.

In a further series the test system is Tubulin. Put plainly: Inhibition of tubulin polymerisation (ITP). It counts as biochemical, sheep. Particulars: tubulin 10 μM; inhibition of maximum assembly rate. The protocol:
To verify whether the antiproliferative activities of novel molecules 2 and 3 correlate with their anti-tubulin effects, their ability to inhibit tubulin polymerisation into microtubules was measured in vitro. Tubulin was purified from sheep brains according to the Shelanski method by two assembly-disassembly cycles. The stock solution (15-20 mg/mL), stored at −196° C., is thawed and diluted in the assembly buffer (0.1 M MES, 0.5 mM MgCl2, 1 mM EGTA, and 1 mM GTP, pH 6.6) to a final concentration of 10 μM. Tubulin assembly was monitored by fluorescence on 96-well plates according to the method of Barron et al. The tubulin solution (10 μM, 100 μL per well) was supplemented with inhibitor (DMSO, 1 μL) and incubated for 45 min at room temperature. GTP (1 mM final) was then added, the solution was rapidly mixed and the fluorescence (λex=350 nm, λem=440 nm) was measured on a Wallac Victor fluorimeter (Perkin Elmer). Fifty-percent inhibition of the maximum assembly rate (IC50) was determined in duplicate or triplicate on 10 concentrations flanking the IC50. For comparison, deoxypodophyllotoxin and isoCA-4 were used as positive controls.

A further series deals with K562R. Put plainly: Cytotoxic activity on K562R. It counts as cell-based. The note with it: Homo sapiens, K-562R; 72 hours of incubation; imatinib-resistant. The protocol:
as §1

For another series, the system named is A549. Kind of series: Cytotoxic activity on A549. It counts as cell-based. The note with it: Homo sapiens, 72 hours of incubation, read-out: Cytotoxicity IC50 A549. The protocol: as §1
The next series relates to K562. Put plainly: Cytotoxic activity on K562. It counts as cell-based. The note with it: Homo sapiens, 72 hours of incubation, read-out: Cytotoxicity IC50 K562. The method, then:
as §1

In a further series the test system is MCF7. Kind of series: Cytotoxic activity on MCF7. Type of series: cell-based. The note with it: Homo sapiens, 72 hours of incubation, read-out: Cytotoxicity IC50 MCF7. The protocol:
as §1

The next series has as its system PC3. Put plainly: Cytotoxic activity on PC3. Type of series: cell-based. The note with it: Homo sapiens, PC-3; 72 hours of incubation; read-out: Cytotoxicity IC50 PC3. The protocol:
as §1

The subject of a further series is U87. Put plainly: Cytotoxic activity on U87. It counts as cell-based. The note with it: Homo sapiens, U-87 MG; 72 hours of incubation; read-out: Cytotoxicity IC50 U87. The protocol:
as §1

A further series has as its system U2OS. Kind of series: Cytotoxic activity on U2OS. It counts as cell-based. Particulars: Homo sapiens, 72 hours of incubation, read-out: Cytotoxicity IC50 U2OS. The protocol: as §1
In another series the test system is SOJ6. Kind of series: Cytotoxic activity on SOJ6. The note with it: Homo sapiens; 72 hours of incubation; read-out: Cytotoxicity IC50 SOJ6. Type of series: cell-based. The protocol: as §1
Another series deals with BxPC3. Put plainly: Cytotoxic activity on BxPC3. It counts as cell-based. Particulars: Homo sapiens, BXPC-3; 72 hours of incubation; read-out: Cytotoxicity IC50 BxPC3. The method, then: as §1
The subject of the next series is MiaPaCa 2. Kind of series: Cytotoxic activity on MiaPaCa 2. Type of series: cell-based. The note with it: Homo sapiens, MIA PaCa-2; 72 hours of incubation; read-out: Cytotoxicity IC50 MiaPaCa 2. The protocol:
as §1

For a further series, the target named is T1, HDAC8 (Homo sapiens, UniProt Q9BY41).
T1 sequence (Q9BY41 1-377): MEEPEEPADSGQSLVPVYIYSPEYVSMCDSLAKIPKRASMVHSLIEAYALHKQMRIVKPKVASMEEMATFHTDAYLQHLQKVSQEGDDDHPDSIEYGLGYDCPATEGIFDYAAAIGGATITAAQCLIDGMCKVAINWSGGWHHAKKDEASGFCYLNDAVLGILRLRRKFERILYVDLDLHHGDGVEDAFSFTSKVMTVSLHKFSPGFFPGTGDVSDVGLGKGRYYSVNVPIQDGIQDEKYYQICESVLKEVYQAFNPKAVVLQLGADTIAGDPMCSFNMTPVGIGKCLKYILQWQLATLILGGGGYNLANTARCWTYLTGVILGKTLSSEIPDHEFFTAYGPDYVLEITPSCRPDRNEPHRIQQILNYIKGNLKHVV
Put plainly: Inhibition of HDAC8 activity. It counts as biochemical.

The next series has as its system HDACs 1 to 11. Put plainly: Inhibition of HDACs 1 to 11 (panel). Type of series: biochemical. The note with it: percentage inhibition at test concentration of 1.0^−5 M.
In another series the test system is other human tumour lines. Put plainly: Cytotoxicity to other human tumour lines (panel). The note with it: A549, K562, MCF7, PC3, U87, U2OS, SOJ6, BxPC-3, MiaPaCa-2, read-out: IC50 values across other human tumour lines. It counts as cell-based. The protocol: as §1
The target of a further series is T2, HDAC11 (Homo sapiens, UniProt Q96DB2).
T2 sequence (Q96DB2 1-347): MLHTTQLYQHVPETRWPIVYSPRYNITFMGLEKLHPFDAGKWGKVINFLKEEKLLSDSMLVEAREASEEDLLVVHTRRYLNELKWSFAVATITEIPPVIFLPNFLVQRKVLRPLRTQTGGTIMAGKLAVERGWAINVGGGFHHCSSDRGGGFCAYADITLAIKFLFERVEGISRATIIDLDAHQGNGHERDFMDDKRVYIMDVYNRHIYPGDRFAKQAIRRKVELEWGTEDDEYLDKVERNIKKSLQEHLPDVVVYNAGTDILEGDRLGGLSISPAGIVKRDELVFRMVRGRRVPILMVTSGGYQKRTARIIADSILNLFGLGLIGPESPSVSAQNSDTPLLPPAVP
Put plainly: Inhibition of HDAC11 activity. Particulars: FIG. 5. Type of series: biochemical.

Where [1] appears, read: HCT-116, 72 hours of incubation.

The structures appear in SMILES notation. Entries after “also recorded” stand apart in the source; their conditions may differ. Read-outs that look alike come from different tables or passages of the source.

Take `COc1ccc(/C=C\c2cc(OC)c(OC)c(OC)c2)cc1O` [CA-4, combretastatin A-4]: the IC50 with many human cancer lines was 1 to 2 nM.

In the case of `C=C(c1cc(OC)c(OC)c(OC)c1)c1ccc(OC)c(C(=O)NO)c1` [Compound 1, N-Hydroxy-2-methoxy-5-(1-(3,4,5-trimethoxyphenyl)vinyl)benzamide], the IC50 stood at 233 ± 22 nM with HCT116 (setting [1]) and 20000 ± 1200 nM in the series on Tubulin.

For `C=C(c1ccc(OC)c(/C=C/C(=O)NO)c1)c1cc(OC)c(OC)c(OC)c1` [Compound 2, (E)-N-Hydroxy-3-(2-methoxy-5-(1-(3,4,5-trimethoxyphenyl)vinyl)phenyl)acrylamide], the IC50 in the series with HCT116 (setting [1]) turned out to be 2.5 nM; with K562R it was 1.6 nM; in the series with Tubulin, 1600 nM; in the series on A549 it was 1.7 nM; with K562, 1.6 nM; with MCF7 it was 2 nM. The IC50 in the series on PC3 worked out at 2.4 nM; with U87, 1.6 nM; in the series on U2OS, 1.9 nM; with SOJ6, 6.8 nM; with BxPC3 it was 2.9 nM; in the series on MiaPaCa 2, 5.1 nM. Besides, the 50% inhibitory concentration (IC50) on HDAC8 is 340 nM; in the series on other human tumour lines, 1.6 to 6.8 nM. In the series with HDACs 1 to 11, the “selective inhibitory activity among HDACs 1 to 11” value was “selective inhibitory activity against HDAC8; also recorded: selective activity for HDAC8 and HDAC11”.

With `C=C(c1ccc(OC)c(C#CCCC(=O)NO)c1)c1cc(OC)c(OC)c(OC)c1` [Compound 3, N-Hydroxy-5-(2-methoxy-5-(1-(3,4,5-trimethoxyphenyl)vinyl)phenyl)pent-4-ynamide], the IC50 came to 35 nM with HCT116 (setting [1]), 33 nM in the series on K562R, 1700 nM in the series on Tubulin and 11000 nM against HDAC11. In addition, the “antiproliferative / cytotoxic activity in words” value in the series with HCT116 is “cytotoxic at nanomolar concentrations”. Further, the “selective inhibitory activity among HDACs 1 to 11” value with HDACs 1 to 11 was “selective inhibitory activity against HDAC8 and HDAC11; also recorded: selective activity for HDAC8 and HDAC11”.

For `C=C(c1ccc(OC)c(C#CCCCC(=O)NO)c1)c1cc(OC)c(OC)c(OC)c1` [Compound 4, N-Hydroxy-6-(2-methoxy-5-(1-(3,4,5-trimethoxyphenyl)vinyl)phenyl)hex-5-ynamide], the IC50 was found to be 372 ± 5 nM with HCT116 (setting [1]) and 18000 ± 1200 nM with Tubulin.

Regarding `C=C(c1cc(OC)c(OC)c(OC)c1)c1ccc(OC)cc1/C=C/C(=O)NO` [Compound 8, (E)-N-Hydroxy-3-(5-methoxy-2-(1-(3,4,5-trimethoxyphenyl)vinyl)phenyl)acrylamide], the 50% inhibitory concentration (IC50) in the series on HCT116 (setting [1]) amounted to 2 ± 0.1 nM; with Tubulin, 2100 ± 400 nM. The “selective inhibitory activity among HDACs 1 to 11” value in the series on HDACs 1 to 11 was “selective inhibitory activity against HDAC6, HDAC8 and HDAC11; also recorded: selective activity for HDAC6, HDAC8 and HDAC11”.

Turning to `C=C(c1cc(OC)c(OC)c(OC)c1)c1ccc2c(c1)c(/C=C/C(=O)NO)cn2C` [Compound 11, (E)-N-Hydroxy-3-(1-methyl-5-(1-(3,4,5-trimethoxyphenyl)vinyl)-1H-indol-3-yl)acrylamide], the 50% inhibitory concentration (IC50) turned out to be 2.2 ± 0.26 nM with HCT116 (setting [1]) and 3700 ± 500 nM in the series with Tubulin. Besides, the “antiproliferative / cytotoxic activity in words” value in the series on HCT116 is listed as “excellent antiproliferative activity”. Besides, the “selective inhibitory activity among HDACs 1 to 11” value with HDACs 1 to 11 was “selective inhibitory activity against HDAC6 and HDAC8; also recorded: selective activity for HDAC6 and HDAC8”.

Take `C=C(c1cc(OC)c(OC)c(OC)c1)c1ccc2c(c1)cc(/C=C/C(=O)NO)n2C` [Compound 12, (E)-N-Hydroxy-3-(1-methyl-5-(1-(3,4,5-trimethoxyphenyl)vinyl)-1H-indol-2-yl)acrylamide]: the IC50 in the series with HCT116 (setting [1]) is 12 ± 2.5 nM; with Tubulin, 5400 ± 1200 nM. Also, the “antiproliferative / cytotoxic activity in words” value in the series with HCT116 is “excellent antiproliferative activity”. The “selective inhibitory activity among HDACs 1 to 11” value with HDACs 1 to 11 was “selective inhibitory activity against HDAC6, HDAC8 and HDAC11; also recorded: selective activity for HDAC6, HDAC8 and HDAC11”.

Consider `C=C(c1cc(OC)c(OC)c(OC)c1)c1ccc(OC)c(/C=C/C(=O)NO)n1` [Compound 17, (E)-N-Hydroxy-3-(3-methoxy-6-(1-(3,4,5-trimethoxyphenyl)vinyl)pyridin-2-yl)acrylamide], for which the figures for the IC50 with HCT116 (setting [1]) and in the series with Tubulin were 37.2 ± 0.6 nM and 7500 ± 1500 nM, respectively. Further, the “antiproliferative / cytotoxic activity in words” value in the series on HCT116 is listed as “excellent antiproliferative activity”.

For the compound `C=C(c1cc(OC)c(OC)c(OC)c1)c1ccc2c(c1)c(C(=O)NO)cn2C` [Compound 25, N-Hydroxy-1-methyl-5-(1-(3,4,5-trimethoxyphenyl)vinyl)-1H-indole-3-carboxamide], the IC50 in the series on HCT116 (setting [1]) amounted to 30 ± 1.5 nM; in the series with Tubulin it was 7300 ± 3300 nM. Moreover, the “antiproliferative / cytotoxic activity in words” value with HCT116 is “excellent antiproliferative activity”.

Turning to `C=C(c1cc(OC)c(OC)c(OC)c1)c1ccc2c(c1)cc(C(=O)NO)n2C` [Compound 43, N-Hydroxy-1-methyl-5-(1-(3,4,5-trimethoxyphenyl)vinyl)-1H-indole-2-carboxamide], the results for the IC50 with HCT116 (setting [1]) and with Tubulin were 36 ± 4 nM and 81000 ± 15000 nM, respectively. Moreover, the “antiproliferative / cytotoxic activity in words” value in the series with HCT116 was “excellent antiproliferative activity”.

As to `C=C(c1cc(OC)c(OC)c(OC)c1)c1ccc2c(ccn2CCC(=O)NO)c1` [Compound 44, N-Hydroxy-3-(5-(1-(3,4,5-trimethoxyphenyl)vinyl)-1H-indol-1-yl)propanamide], the IC50 came to 393 ± 4.1 nM in the series on HCT116 (setting [1]) and 22000 ± 2000 nM with Tubulin.

With `C=C(c1ccc(OC)c(O)c1)c1cc(OC)c(OC)c(OC)c1` [isoCA-4, Isocombretastatin A-4, reference compound], the 50% inhibitory concentration (IC50) in the series with HCT116 (HCT-116, 72 h) was 2 nM; in the series with Tubulin, 1800 ± 400 nM.
